Calls of active or inactive are those of the source. The rule behind the calls is not given here.
Experiments:
Leishmania infantum [1] = assay: Antileishmanial activity against Leishmania infantum MHOM/BR/1972/LD amastigotes infected in BALB/c mouse peritoneal macrophages assessed as parasite viability after 72 hrs by Giemsa staining-based light microscopic analysis; assay type: functional, organism-based
Trypanosoma cruzi [2] = assay: Antitrypanosomal activity against Trypanosoma cruzi Y trypomastigotes assessed as parasite viability after 24 hrs by resazurin staining-based hemocytometric analysis; assay type: functional, organism-based
Leishmania infantum [3] = assay: Antileishmanial activity against Leishmania infantum MHOM/BR/1972/LD promastigotes assessed as parasite viability up to 200 uM after 48 hrs by MTT assay; assay type: functional, organism-based
L929 = assay: Cytotoxicity against mouse NCTC-929 cells after 72 hrs by MTT assay; assay type: cell-based; settings: L929, 72 h
[4] = Selectivity index, ratio of IC50 for mouse NCTC-929 cells to IC50 for Leishmania infantum MHOM/BR/1972/LD amastigotes infected in BALB/C mouse peritoneal macrophages; assay type: toxicity; settings: read-out: Ratio IC50
[5] = Selectivity index, ratio of IC50 for mouse NCTC-929 cells to IC50 for Trypanosoma cruzi Y trypomastigotes; assay type: toxicity; settings: NCTC-929 cells versus Trypanosoma cruzi Y trypomastigotes, read-out: Ratio IC50
Leishmania infantum [6] = assay: Antileishmanial activity against Leishmania infantum MHOM/BR/1972/LD amastigotes infected in BALB/c mouse peritoneal macrophages assessed as parasite viability up to 200 uM after 72 hrs by Giemsa staining-based light microscopic analysis; assay type: functional, organism-based
Trypanosoma cruzi [7] = assay: Antitrypanosomal activity against Trypanosoma cruzi Y trypomastigotes assessed as parasite viability up to 200 uM after 24 hrs by resazurin staining-based hemocytometric analysis; assay type: functional, organism-based
Leishmania infantum [8] = assay: Antileishmanial activity against Leishmania infantum MHOM/BR/1972/LD promastigotes assessed as parasite viability after 48 hrs by MTT assay; assay type: functional, organism-based
Trypanosoma cruzi [9] = assay: Antitrypanosomal activity against Trypanosoma cruzi Y infected in BALB/c mouse assessed as reduction in blood parasitemia at 100 mg/kg, po administered every day starting on day 5 post infection measured on day 8 post infection; assay type: functional; design: scale not given: the % may be the effect or the level left
Mus musculus [10] = assay: Toxicity in BALB/c mouse infected with Trypanosoma cruzi Y assessed as mortality at 100 mg/kg/day, po administered for 10 consecutive days starting on day 5 post infection measured during compound dosing; assay type: organism-based; settings: in vivo
Trypanosoma cruzi [11] = assay: Antitrypanosomal activity against Trypanosoma cruzi Y infected in BALB/c mouse assessed as reduction in blood parasitemia at 100 mg/kg/day, […] dosed administered for 10 consecutive days starting on day 5 post infection measured on day 14 post infection relative to control; assay type: functional; design: scale not given: the % may be the effect or the level left
Trypanosoma cruzi [12] = assay: Induction of plasma membrane permeabilization in Trypanosoma cruzi Y trypomastigotes at IC50 to IC90 measured every 1 hr up to 7 hrs by Sytox Green staining-based fluorimetric analysis; assay type: functional, organism-based
Trypanosoma cruzi [13] = assay: Induction of mitochondrial membrane hyperpolarization in Trypanosoma cruzi Y trypomastigotes assessed as increase in fluorescence at IC50 after 2 hrs by rhodamine123/propidium iodide staining-based flow cytometric analysis relative to control; assay type: functional
Trypanosoma cruzi [14] = assay: Induction of mitochondrial membrane hyperpolarization in Trypanosoma cruzi Y trypomastigotes assessed as increase in fluorescence at IC90 after 2 hrs by rhodamine123/propidium iodide staining-based flow cytometric analysis relative to control; assay type: functional
Trypanosoma cruzi [15] = assay: Antitrypanosomal activity against Trypanosoma cruzi Y infected in BALB/c mouse assessed as reduction in blood parasitemia at 30 mg/kg, ip administered every day starting on day 5 post infection measured on day 8 post infection; assay type: functional, organism-based
Trypanosoma cruzi [16] = assay: Antitrypanosomal activity against Trypanosoma cruzi Y infected in BALB/c mouse assessed as reduction in blood parasitemia at 30 mg/kg/day, ip dosed administered for 10 consecutive days starting on day 5 post infection measured on day 14 post infection relative to control; assay type: functional; design: scale not given: the % may be the effect or the level left
Mus musculus [17] = assay: Toxicity in BALB/c mouse infected with Trypanosoma cruzi Y assessed as mortality at 30 mg/kg/day, ip administered for 10 consecutive days starting on day 5 post infection measured during compound dosing; assay type: organism-based; settings: in vivo
Mus musculus [18] = assay: Hepatotoxicity in BALB/c mouse infected with Trypanosoma cruzi Y assessed as hydropic degeneration of hepatocytes at 30 mg/kg/day, ip dosed for 10 consecutive days by hematoxylin and eosin staining-based light microscopic analysis; assay type: toxicity, organism-based; settings: in vivo
Trypanosoma cruzi [19] = assay: Antitrypanosomal activity against Trypanosoma cruzi Y intracellular amastigotes infected in BALB/c mouse peritoneal macrophages at 25 uM after 48 hrs by Giemsa staining-based light microscopic analysis; assay type: functional
Trypanosoma cruzi [20] = assay: Induction of mitochondrial membrane hyperpolarization in Trypanosoma cruzi Y trypomastigotes after 1 hr by rhodamine123/propidium iodide staining-based flow cytometric analysis; assay type: functional, organism-based
Trypanosoma cruzi [21] = assay: Potency index, ratio of benznidazole IC50 to test compound IC50 for Trypanosoma cruzi Y trypomastigotes; assay type: functional

| IC50 (Trypanosoma cruzi [2]) [µM] | SMILES | Activity (Leishmania infantum [3]) | IC50 (L929) [µM] | selectivity ratio [5] | Activity (Leishmania infantum [6]) | Activity (Trypanosoma cruzi [7]) | further results |
| --- | --- | --- | --- | --- | --- | --- | --- |
| 4.4 | Cc1cc(O)c(C(=O)CCC2CCCCC2)c(=O)o1 | inactive | 117 | 26.8 | – | – | IC50 (Leishmania infantum [1]): 39.2 µM; selectivity ratio [4]: 2.9 |
| – | CCCCCCCCCCCCCCNC(=O)c1c(O)cc(C)oc1=O | inactive | > 200 | – | inactive | inactive | – |
| 32.2 | Cc1cc(O)c(CCC2CCCCC2)c(=O)o1 | inactive | 109 | 3.4 | inactive | – | – |
| 25.7 | CCCCCCCC(=O)c1c(O)cc(C)oc1=O | inactive | 140 | 5.4 | inactive | – | – |
| 78.1 | CCCCCCCNC(=O)c1c(O)cc(C)oc1=O | inactive | 187 | 2.4 | inactive | – | – |
| – | Cc1cc(O)c(CC2CCCCC2)c(=O)o1 | inactive | > 200 | – | inactive | inactive | – |
| – | Cc1cc(O)c(C(=O)C2CCCCC2)c(=O)o1 | inactive | > 200 | – | inactive | inactive | – |
| 40 | CCCCCCCCc1c(O)cc(C)oc1=O | inactive | 145 | 3.6 | inactive | – | – |
| 81.4 | Cc1cc(O)c(C(=O)NCCCc2ccccc2)c(=O)o1 | inactive | 143 | 1.7 | inactive | – | – |
| – | Cc1cc(O)c(C(=O)Nc2ccc(OCc3ccccc3)cc2)c(=O)o1 | inactive | > 200 | – | inactive | inactive | – |
| – | Cc1cc(O)c(C(=O)Nc2ccc3c(c2)OCO3)c(=O)o1 | inactive | > 200 | – | inactive | inactive | – |
| 17.5 | CCCCCCCCCC(=O)c1c(O)cc(C)oc1=O | inactive | 134 | 7.6 | inactive | – | – |
| – | Cc1cc(O)c(C(=O)Nc2ccccc2)c(=O)o1 | inactive | > 200 | – | inactive | inactive | – |
| – | CCCCCCCCCCc1c(O)cc(C)oc1=O | – | 56 | – | inactive | inactive | IC50 (Leishmania infantum [8]): 118 µM |
| – | Cc1cc(O)c(C(=S)Nc2ccccc2)c(=O)o1 | inactive | > 200 | – | – | inactive | IC50 (Leishmania infantum [1]): > 100 µM |
| – | CCCCCC(=O)c1c(O)cc(C)oc1=O | inactive | > 200 | – | – | inactive | IC50 (Leishmania infantum [1]): 13.8 µM; selectivity ratio [4]: > 14.5 |
| 26.6 | CCCCCCCCCCCCCCCCc1c(O)cc(C)oc1=O | inactive | 38.2 | 1.4 | inactive | – | – |
| – | CCCCCCCCCCCCCCCCOP(=O)([O-])OCC[N+](C)(C)C [MILTEFOSINE] | – | 241 | 32.6 | – | – | IC50 (Leishmania infantum [8]): 16.2 µM; IC50 (Leishmania infantum [1]): 7.4 µM |
| 16.1 | CCCCCCCCCCCCc1c(O)cc(C)oc1=O | – | 57.2 | 3.5 | inactive | – | IC50 (Leishmania infantum [8]): 138 µM |
| 66.3 | CCCCCCCCCCCCCCCC(=O)c1c(O)cc(C)oc1=O | inactive | 164 | 2.5 | inactive | – | – |
| 72.6 | CCCCCCNC(=O)c1c(O)cc(C)oc1=O | inactive | 196 | 2.7 | – | – | IC50 (Leishmania infantum [1]): 54 µM; selectivity ratio [4]: 3.6 |
| 90.5 | Cc1cc(O)c(C(=S)NC2CCCCC2)c(=O)o1 | inactive | 177 | 1.9 | inactive | – | – |
| – | Cc1cc(O)c(C(=O)NCCc2ccccc2)c(=O)o1 | inactive | 178 | – | – | inactive | IC50 (Leishmania infantum [1]): 46.8 µM; selectivity ratio [4]: 3.8 |
| – | CCCCCCc1c(O)cc(C)oc1=O | inactive | > 200 | – | inactive | inactive | – |
| 1.3 | CCCCCCCCCCCC(=O)c1c(O)cc(C)oc1=O | inactive | 90.3 | 71.1 | inactive | – | – |
| – | Cc1cc(O)c(C(=O)NCc2ccccc2)c(=O)o1 | inactive | > 200 | – | – | inactive | IC50 (Leishmania infantum [1]): 52.8 µM; selectivity ratio [4]: 5 |
| 4.9 | CCCCCCCCCCCCCCc1c(O)cc(C)oc1=O | inactive | 24.1 | 4.9 | inactive | – | – |

| SMILES | IC50 (Trypanosoma cruzi [2]) [µM] | Activity (Leishmania infantum [3]) | IC50 (L929) [µM] | selectivity ratio [5] | Activity (Leishmania infantum [6]) | Activity (Trypanosoma cruzi [7]) | further results |
| --- | --- | --- | --- | --- | --- | --- | --- |
| O=C(Cn1ccnc1[N+](=O)[O-])NCc1ccccc1 [BENZNIDAZOLE] | 16.2 | – | > 200 | > 36 | – | – | Activity (Trypanosoma cruzi [9]): 100%; Activity (Mus musculus [10]): Non-Toxic; Activity (Trypanosoma cruzi [11]): 100% |
| CCCCCCCCCCCCCC(=O)c1c(O)cc(C)oc1=O | 2.6 | inactive | > 200 | > 77.5 | inactive | – | Activity (Trypanosoma cruzi [12]): inactive; Activity (Trypanosoma cruzi [13]): 25%; Activity (Trypanosoma cruzi [14]): 26%; Activity (Trypanosoma cruzi [15]): inactive; Activity (Trypanosoma cruzi [16]): 55%; Activity (Mus musculus [17]): Non-Toxic; Activity (Mus musculus [18]): Non-Toxic; Activity (Trypanosoma cruzi [19]): 14%; Activity (Trypanosoma cruzi [20]): Dose-dependent effect; Ratio IC50 (Trypanosoma cruzi [21]): 6 |
